US12377087B2, “Compounds for the treatment of cancer” (UNIVERSITY OF LOUISVILLE RESEARCH FOUNDATION, INC., priority 2015, dated 2025)

How the values were obtained:
[1] = test system: H460 cells; assay: F2,6BP measurements in H460 cells; type: cell-based, human; settings: H460, indicated concentrations of MPN-2
Procedure: F2,6BP measurements: Cells or tissues were prepared as previously described and F2,6BP content measured using a coupled enzyme reaction following the method of Van Schaftingen et at (Van Schaftingen E et al. A kinetic study of pyrophosphate: fructose-6-phosphate phosphotransferase from potato tubers. Application to a microassay of fructose 2,6-bisphosphate. Eur J Biochem 1982 December; 129(1): 191-5) and normalized to total cellular protein measured by the bicinchoninic acid assay (BCA, Thermo Scientific). […] In order to measure F2,6BP, cells were harvested, washed with PBS, lysed in NaOH/Tris acetate by heating at 80° C. and lysates neutralized to pH 7.2. F2,6BP content was measured using a coupled enzyme reaction following the method of Van Schaftingen et al (Eur J Biochem. 1982; 129(1): 191-195). The F2,6BP concentration was normalized to total cellular protein measured by the bicinchoninic acid assay (BCA, Thermo Scientific) All data are expressed as the mean±SD of three experiments. Statistical significance was assessed by the two-sample t test (independent variable).

[2] = test system: H460 cells; assay: proliferation / viable cell count (trypan blue) of H460 cells; type: cell-based, human; settings: for proliferation of H460 NSCLC cells, viable cells by Trypan blue exclusion: increasing concentrations, counts at 48 hours shown
Procedure: Cell Viability: Cells were incubated in 20% trypan blue (Sigma) for 5 minutes. Cells excluding trypan blue were counted using a standard hemocytometer (Hausser Scientific) to determine total numbers of viable cells. Data are expressed as mean±SD of three experiments. Proliferation Assays: H460 non-small cell lung cancer cells were plated in 24 well plates and exposed to increasing concentrations of the indicated inhibitors of Formula IV (FBR1-02 corresponds to [drawing 47] DMSO was used as vehicle. After 24, 48 and 72 hours of exposure, cells were detached and viable cells were counted by Trypan blue exclusion (representative counts at 48 hours shown).

[3] = oral and intravenous pharmacokinetics of MPN-2; type: in vivo; settings: CD-1 mice (N=3)
[4] = test system: Lewis lung carcinomas; assay: Lewis lung carcinoma tumor growth in mice; type: in vivo, C57BL/6 mice; settings: C57BL/6 mice, intraperitoneal injection 10 mg/kg daily, eleven days
[5] = test system: SK-BR-3; assay: proliferation of SK-BR-3 cells; type: cell-based; settings: SK-BR-3, 24-72 hours (72 hours shown)
Procedure: Cell Viability: Cells were incubated in 20% trypan blue (Sigma) for 5 minutes. Cells excluding trypan blue were counted using a standard hemocytometer (Hausser Scientific) to determine total numbers of viable cells. Data are expressed as mean±SD of three experiments.

[6] = test system: H460 cells; assay: Glycolysis assay (3H2O from 5-[3H]glucose) in H460 cells; type: cell-based, human; settings: H460, indicated concentrations of MPN-2, 48 hours
Procedure: Cells growing in 6-well plates were incubated in 500 μl of complete medium containing 1 μCi of 5-[^3H]glucose per well for 60 min in 5% CO2 at 37° C. Media was collected, ^3H2O formed via glycolysis from the 5-[^3H]glucose measured and counts normalized as previously described. For example, the medium was then collected and centrifuged to pellet any suspended cells. To separate the ^3H2O formed via glycolysis from the 5-[^3H]glucose added to the medium, an evaporation technique in a sealed system was utilized. Briefly, 150 μl aliquots of medium were added to open tubes that were placed upright inside scintillation vials containing 1 ml of H2O. The scintillation vials were sealed, and the ^3H2O produced by glycolysis through enolase and released to the medium was allowed to equilibrate with the H2O in the outer vial for 48 h at 37° C. The amounts of ^3H2O that had diffused into the surrounding H2O was measured on a Tri-Carb 2910 liquid scintillation analyzer (Perkin Elmer) and compared with ^3H2O and 5-[^3H]glucose standards. Protein concentration was determined using the BCA assay and counts were normalized to protein concentration. All data are expressed as the mean±SD of three experiments. Statistical significance was assessed by the two-sample t test (independent variable).

[7] = test system: H460 cells; assay: ATP measurements in H460 cells; type: cell-based, human; settings: H460, indicated concentrations of MPN-2, 48 hours
Procedure: Cells were lysed and intracellular ATP determined as described previously. For example, cells were washed (while still adherent) with cold PBS 1×, lysed with Passive Lysis Buffer (1×; Molecular Probes, Invitrogen) added directly to the plates, and immediately harvested by scraping. The lysates were flash frozen (to −80° C.) and thawed (to 37° C.) once to accomplish complete lysis and then centrifuged (at 4° C.) for 30 seconds to clear the lysates. Intracellular ATP levels were determined using a bioluminescence assay (Molecular Probes), utilizing recombinant firefly luciferase and its substrate, D-luciferin. The luminescence was read in a TD-20/20 luminometer (Turner Designs) at 560 nm. The ATP values were calculated using an ATP standard curve. The protein concentrations of the lysates were estimated using the BCA assay (Pierce Biotechnology) and ATP was expressed as pmol/μg protein. All data are expressed as the mean±SD of three experiments. Statistical significance was assessed by the two-sample t test (independent variable).

In the case of “5-[(8-methoxy-2-methylquinolin-1-ium-4-yl)amino]pentyl nitrate [MPN-2]”, the “F2,6BP production” value [1] is reported as “significantly inhibited”, the proliferation ([2]; H460, 24-72 hours (72 hours shown)) is reported as “decreased proliferation” and the “proliferation, viable cells” value ([2]; H460 NSCLC, 48 hours and 72 hours) is reported as “decreased the proliferation”. The oral bioavailability [3] was “high oral bioavailability”, the “tumor growth of Lewis lung carcinomas” value [4] was “suppressed the growth” and the proliferation [5] was “decreased proliferation”. For the same compound, the intracellular glycolysis [6] was “significantly decreased” and the ATP production [7] was “significantly decreased”.
For `O=[N+]([O-])OCCCCCNc1ccnc2ccccc12` [FBR1-02], the “proliferation of H460 NSCLC cells, viable cells by Trypan blue exclusion” value [2] was “decreased proliferation of cancer cells”.
For `COc1cccc2c(NCCCCCNS(C)(=O)=O)ccnc12` [FBR1-09], the “proliferation of H460 NSCLC cells, viable cells by Trypan blue exclusion” value [2] was “decreased proliferation of cancer cells”.
